Assays:
[1] = Plasma protein binding assay, human plasma (hPPB); type: in vitro ADME; settings: 5 μM, equilibrium dialysis 4 hours 37° C.
Method: (§1) Plasma Protein Binding Assay The plasma protein binding was determined by the equilibrium dialysis method. A known concentration of compound (5 μM) in previously frozen human or mouse plasma (Sera Labs) was dialysed against phosphate buffer using a RED device (Life Technologies) for 4 hours at 37° C. The concentration of compound in the protein containing (PC) and protein free (PF) sides of the dialysis membrane were determined by LC-MS/MS and the % free compound was determined by equation 4. Data analysis was performed using Excel (Microsoft, USA). % free=(1−((PC−PF)/PC))×100 (4) hPPB (human plasma protein binding) and mPPB (mouse plasma protein binding) results are described in Tables 1-2.

[2] = tested on: BRAF monomers in A375 cells; experiment: A375 AlphaLISA SureFire pERK1/2 cellular assay (monomer); type: cell-based; settings: Homo sapiens, A-375; A375 cells, 1 hr; read-out: pERK A375 (1 hr) pIC50 (converted)
Method: (§2) The human HCT-116 colorectal carcinoma cell line (ATCC CCL-247) endogenously expresses the KRAS^G13D mutation, which leads to constitutive activation of the MAP kinase pathway and phosphorylation of ERK. […] Assay read outs took place 2 or 24 hours after dosing with compounds. On the first day, HCT-116 cells were harvested, resuspended in growth medium (McCoys5A with Glutamax (Life Technologies 36600021) and 10% heat-inactivated fetal bovine serum (Sigma F9665)), and counted. Cells were plated in 100 μl per well in each well of a 96-well culture dish (Sigma CLS3598) to a final density of 30,000 (2 hr read) or 15,000 (24 hr read) cells per well and incubated over night at 37° C. and 5% CO2. On day 2, the growth medium was exchanged for dosing medium (McCoys5A with Glutamax (Life Technologies 36600021) and 1% heat-inactivated fetal bovine serum (Sigma F9665)) and the cells were dosed with compounds to produce a 10-point dose response, where the top concentration was 1 μM and subsequent concentrations were at 1/3 log dilution intervals. A matched DMSO control was included. The cells were subsequently incubated for either 2 or 24 hours at 37° C. and 5% CO2. After incubation, media was removed and the cells were incubated with lysis buffer containing phosphatase inhibitors for 15 minutes at room temperature. Cell lysates were transferred to a 12 area 96 well white Optiplate™ (Perkin Elmer 6005569) and incubated with anti-mouse IgG acceptor beads, a biotinylated anti-ERK1/2 rabbit antibody recognizing both phosphorylated and non-phosphorylated ERK1/2, a mouse antibody targeted to the Thr202/Tyr204 epitope and recognizing phosphorylated ERK proteins only, and streptavidin-coated donor beads. The biotinylated antibody binds to the streptavidin-coated donor beads and the phopsho-ERK1/2 antibody binds to the acceptor beads. Plates were read on an EnVision reader (Perkin Elmer) and excitation of the beads at 680 nm with a laser induced the release of singlet oxygen molecules from the donor beads that trigger energy transfer to the acceptor beads in close proximity, producing a signal that can be measured at […]. Both antibodies bound to phosphorylated ERK proteins, bringing the donor and acceptor beads into close proximity. All data were analyzed using the Dotmatics or GraphPad Prism software packages. Inhibition of ERK phosphorylation was assessed by determination of the absolute IC50 value, which is defined as the concentration of compound required to decrease the level of phosphorylated ERK proteins by 50% when compared to DMSO control.
A375 AlphaLISA SureFire pERK1/2 Cellular Assay (Monomer)
The human A375 melanoma cell line (ATCC CRL-1619) endogenously expresses the BRAF^V600E mutation, which leads to constitutive activation of the MAP kinase pathway and phosphorylation of ERK. In BRAF^V600E mutant tumours, BRAF signals as a monomer to activate ERK. To determine whether compounds can inhibit BRAF monomers in A375 cells, they were tested using AlphaLISA® SureFire® technology (Perkin Elmer p-ERK1/2 p-T202/Y204 assay kit ALSU-PERK-A10K). The main procedure is essentially the same as described above for HCT-116 cells, with the following adjustments: The A375 cells were cultivated and dosed in Dulbecco's modified Eagle's medium containing 4.5 g/L D-glucose (Sigma D6546), 10% heat-inactivated fetal bovine serum (Sigma F9665), and 1% Sodium-Pyruvate (Sigma S8636), and seeded with a seeding density of 30,000 cells per well. No media exchange was performed before dosing with compounds to produce a 10-point dose response, where the top concentration was 10 μM and subsequent concentrations were at 1/2 log dilution intervals. Subsequently, the cells were incubated for 1 hour at 37° C. and 5% CO2 before lysis.

[3] = Solubility (Sol), medium not stated; type: physicochemical; settings: cells not marked (FESSIF)
[4] = tested on: RAF dimers in HCT-116 cells; experiment: HCT-116 AlphaLISA SureFire pERK1/2 cellular assay (dimer); type: cell-based; settings: Homo sapiens, HCT-116; HCT116 cells pre-dosed with 1 μM Encorafenib, 1 hr; read-out: pERK HCT116 dimer (1 hr) pIC50 (converted)
Method: as §2
HCT-116 AlphaLISA SureFire pERK1/2 Cellular Assay (Dimer)
The human HCT-116 colorectal carcinoma cell line (ATCC CCL-247) endogenously expresses the KRAS^G13D mutation, which leads to constitutive activation of the MAP kinase pathway and phosphorylation of ERK. First generation RAF inhibitors can promote RAF dimer formation in KRAS mutant tumours leading to a paradoxical activation of the pathway. To determine whether compounds can circumvent this problem and inhibit RAF dimers in HCT-116 cells, they were tested using AlphaLISA® SureFire® technology (Perkin Elmer p-ERK1/2 p-T202/Y204 assay kit ALSU-PERK-A10K). The main procedure is essentially the same as described above, with the following adjustments: Cells were seeded with the seeding density of 30,000 cells per well. On the second day (the day of dosing) no medium change was performed and the cells were dosed with 1 μM of Encorafenib for 1 hour (at 37° C. and 5% CO2) to induce RAF dimers and promote paradoxical dimer-dependent pERK signalling. After incubation, the cells were washed, 100 μl fresh growth medium was added, and cells were dosed with compounds of interest to produce a 10-point dose response, where the top concentration was 10 μM and subsequent concentrations are at 1/2 log dilution intervals. Cells were incubated for another hour at 37° C. and 5% CO2 before lysis and processing with the pERK AlphaLISA® SureFire® kit as described above. […]

[5] = Plasma protein binding assay, mouse plasma (mPPB); type: in vitro ADME; settings: 5 μM, equilibrium dialysis 4 hours 37° C.
Method: as §1

[6] = Microsomal stability assay, mouse liver microsomes (MLM); type: in vitro ADME; settings: 0.5 mg/mL protein, 1 μM substrate
Method: (§3) Microsomal Stability Assay
(§4) The stability studies were performed manually using the substrate depletion approach. Test compounds were incubated at 37° C. with cryo-preserved mouse or human liver microsomes (Corning) at a protein concentration of 0.5 mg·mL^−1 and a final substrate concentration of 1 μM. Aliquots were removed from the incubation at defined timepoints and the reaction was terminated by adding to ice-cold organic solvent. Compound concentrations were determined by LC-MS/MS analysis. The natural log of the percentage of compound remaining was plotted against each time point and the slope determined. The half-life (t1/2) and CLint were calculated using Equations 1 and 2, respectively.
(§5) HLM (human liver microsomes) and MLM (mouse liver microsomes) stability assay results are described in Tables 1-2.

[7] = Microsomal stability assay, human liver microsomes (HLM); type: in vitro ADME; settings: 0.5 mg/mL protein, 1 μM substrate
Method: as §3, §4, §5

Compound | hPPB (% free) [1] [% free] | IC50 [2] [nM] | Sol [3] [mg/L] | IC50 [4] [nM] | mPPB (% free) [5] [% free] | microsomal CLint at 1 μM [6] [µL/min/mg] | microsomal CLint at 1 μM [7] [µL/min/mg]
COc1ccccc1-c1c[nH]c(C2COc3ccc(Oc4ccnc5c4CCC(=O)N5)cc3C2)n1 (centres unmarked) [Compound 1, 5-[3-[4-(2-methoxyphenyl)-1H-imidazol-2-yl]chroman-6-yl]oxy-3,4-dihydro-1H-1,8-naphthyridin-2-one] | 0.2 | 28.2 | <1.2 | 67.6 | 0.5 | 109 | 123
COc1cccc(-c2cc(C3COc4ccc(Oc5ccnc6c5CCC(=O)N6)cc4C3)[nH]n2)c1 (centres unmarked) [Compound 41] |  | 513 | <1.2 | 302 | 1.2 | 46.1 | 
Cc1ccc(-c2c[nH]c(C3COc4ccc(Oc5ccnc6c5CCC(=O)N6)cc4C3)n2)cc1 (centres unmarked) [Compound 9, 5-[3-[4-(p-tolyl)-1H-imidazol-2-yl]chroman-6-yl]oxy-3,4-dihydro-1H-1,8-naphthyridin-2-one] | 0.6 | 331 | <1.1 | 186 | 0.4 | 6.1 | 70.5
COc1ccccc1-c1cc(C2COc3ccc(Oc4ccnc5c4CCC(=O)N5)cc3C2)[nH]n1 (centres unmarked) [Compound 40] |  | 251 | <1.2 | 324 |  | 27.1 | 
O=C1CCc2c(Oc3ccc4c(c3)CC(c3nc5c(C(F)(F)F)cccc5[nH]3)CO4)ccnc2N1 (centres unmarked) [Compound 27] | <0.1 | 389 | <1.2 | 380 | <0.1 | 148 | 102
COc1cncc(-c2c[nH]c(C3COc4ccc(Oc5ccnc6c5CCC(=O)N6)cc4C3)n2)c1 (centres unmarked) [Compound 17, 5-[3-[4-(5-methoxy-3-pyridyl)-1H-imidazol-2-yl]chroman-6-yl]oxy-3,4-dihydro-1H-1,8-naphthyridin-2-one] | 0.7 | 933 | <1.2 | 347 | 2.4 | 16.5 | 31.5
c1ccc(-c2c[nH]c(C3COc4ccc(OC5CCOCC5)cc4C3)n2)cc1 (centres unmarked) [compound 51] | 0.5 |  | 1.2 |  | 2.6 | 123 | 156
CN(C)Cc1cc(C(F)(F)F)c2nc(C3COc4ccc(Oc5ccnc6c5CCC(=O)N6)cc4C3)[nH]c2c1 (centres unmarked) [Compound 34] | 0.7 | 4470 | 28.7 |  | 3.2 | 8.6 | 46.9
O=C1CCc2c(Oc3ccc4c(c3)CC(c3cc(-c5cccc(Cl)c5)n[nH]3)CO4)ccnc2N1 (centres unmarked) [Compound 37] |  | 501 | <1.2 | 339 |  | 18.4 | 
O=C1CCc2c(Oc3ccc4c(c3)CC(c3cc(-c5ccccc5C(F)(F)F)n[nH]3)CO4)ccnc2N1 (centres unmarked) [Compound 35, 5-[3-[3-[2-(trifluoromethyl)phenyl]-1H-pyrazol-5-yl]chroman-6-yl]oxy-3,4-dihydro-1H-1,8-naphthyridin-2-one] | <0.1 | 2450 | <1.3 | 525 |  | 42.1 | 277
O=C1CCc2c(Oc3ccc4c(c3)CC(c3cc(-c5cccc(C(F)(F)F)c5)n[nH]3)CO4)ccnc2N1 (centres unmarked) [Compound 42] |  | 891 | <1.3 | 741 | <0.1 | 22 | 10.6
O=C1CCc2c(Oc3ccc4c(c3)CC(c3cc(-c5ccc(C(F)(F)F)cc5)n[nH]3)CO4)ccnc2N1 (centres unmarked) [Compound 38] |  | 8510 | <1.3 | 3980 |  | 4.3 | 3
N#Cc1cccc(-c2c[nH]c(C3COc4ccc(Oc5ccnc6c5CCC(=O)N6)cc4C3)n2)c1 (centres unmarked) [Compound 16, 3-[2-[6-[(7-oxo-6,8-dihydro-5H-1,8-naphthyridin-4-yl)oxy]chroman-3-yl]-1H-imidazol-4-yl]benzonitrile] |  | 575 | <1.2 | 617 |  |  | 
O=C1CCc2c(Oc3ccc4c(c3)CN(C(=O)Nc3ccccc3)CC4)ccnc2N1 [Compound 46, 7-[(7-oxo-6,8-dihydro-5H-1,8-naphthyridin-4-yl)oxy]-N-phenyl-3,4-dihydro-1H-isoquinoline-2-carboxamide] | 1.9 |  | <1 |  | 2.3 | 45.5 | 18.4
O=C1CCc2c(Oc3ccc4c(c3)CC(c3cc(-c5ccccc5Cl)n[nH]3)CO4)ccnc2N1 (centres unmarked) [Compound 36] |  | 525 | <1.2 | 174 | <0.1 | 18.4 | 23.5
O=C1CCc2c(Oc3ccc4c(c3)CC(c3nc5cc(C(F)(F)F)cc(Cl)c5[nH]3)CO4)ccnc2N1 (centres unmarked) [Compound 30] |  | 162 | <1.3 | 1320 |  |  | 
